Results reported in US9322066B2, “Predictors for cancer treatment” (priority 2011, dated 2016).

System: relapsed or refractory, rituximab-naive or -sensitive follicular B-cell NHL
Test: Time to next anti-lymphoma therapy, Vc-R vs rituximab study, by biomarker
Format: in vivo, human
Parameters: Median, Time to Next Anti-Lymphoma Therapy / Time to Next Anti-Lymphoma Therapy, Median: unit not given here
Source text: Non-Hodgkin lymphoma (NHL) encompasses several unique malignant lymphoid disease entities that vary in clinical behavior, morphologic appearance, immunologic, and molecular phenotype. […] A randomized, open-label, active-controlled, multicenter, multinational, prospective study to compare the efficacy and safety of the combination of bortezomib and rituximab (Vc-R) to single-agent rituximab in subjects who have relapsed or refractory, rituximab-naive or -sensitive follicular B-cell NHL was performed.
Subjects were centrally randomized to Treatment Groups A (Vc-R) or B (rituximab) in a 1:1 ratio taking into account the following stratification factors: • Follicular Lymphoma International Prognostic Index (FLIPI) score (low [0 or 1 factor], intermediate [2 factors], high [≧3 factors]); • Prior rituximab therapy (yes, no); • Time since last dose of anti-lymphoma therapy (≦1 year, >1 year); • Region (United States/Canada, European Union, Rest of World).
The following clinical endpoints were included in the analysis within each treatment group and an overall comparison was made with the biomarker-related endpoints: Progression-free survival, defined as the interval between the date of randomization and the date of progressive disease (PD) or death, whichever is first reported in the ITT population; overall survival; overall response rate (complete response [CR]+CR unconfirmed [CRu]+partial response [PR]); overall CR rate (CR+CRu); duration of response; time to next anti-lymphoma therapy; and treatment free interval.

[1] = 20S % NUCLEAR STAINING: 0-20, Female, IRC Review
[2] = 20S % NUCLEAR STAINING: 60-70, Male, IRC Review
[3] = 20S % NUCLEAR STAINING: 60-70, Prior Rituximab Therapy, IRC Review
[4] = 20S INTENSITY CYTOPLASMIC SIGNAL: ≧3+, European Union, IRC Review
[5] = 20S INTENSITY CYTOPLASMIC SIGNAL: ≧3+, Male, IRC Review
[6] = BCL2/A43G: MND, subgroup White, IRC review
[7] = BCL2/C.-11C > T: MND, subgroup White, IRC review
[8] = BCL2/E29K: MND, subgroup White, IRC review
[9] = BCL2/P46L: MND, subgroup White, IRC review
[10] = BCL2/P46S: MND, subgroup White, IRC review
[11] = BCL2/P59L: MND, subgroup White, IRC review
[12] = BCL2/P59S: MND, subgroup White, IRC review
[13] = BCL2/Q52P: MND, subgroup White, IRC review
[14] = BCL2/R106H: MND, subgroup White, IRC review
[15] = CD68 OVERALL POSITIVE: 0-25, 2 Prior Lines of Therapy, IRC Review
[16] = CD68 OVERALL POSITIVE: 0-25, >1 year since last anti-lymphoma treatment, IRC Review
[17] = CD68 OVERALL POSITIVE: 0-25, Ann Arbor Stage III, IRC Review
[18] = CD68 OVERALL POSITIVE: 0-25, Ann Arbor Stage IV, IRC Review
[19] = CD68 OVERALL POSITIVE: 0-25, European Union, IRC Review
[20] = CD68 OVERALL POSITIVE: 0-25, Female, IRC Review
[21] = CD68 OVERALL POSITIVE: 0-25, Intermediate FLIPI Score, IRC Review
[22] = CD68 OVERALL POSITIVE: 0-25, Low FLIPI Score, IRC Review
[23] = CD68 OVERALL POSITIVE: 0-25, Male, IRC Review
[24] = CD68 OVERALL POSITIVE: 0-25, No High Tumor Burden, IRC Review
[25] = CD68 OVERALL POSITIVE: 0-25, No Prior Rituximab Therapy, IRC Review
[26] = CD68 OVERALL POSITIVE: 0-25, No Subgroup, IRC Review
[27] = CD68 OVERALL POSITIVE: 0-25, Prior Rituximab Therapy, IRC Review
[28] = CD68 OVERALL POSITIVE: 0-25, White, IRC Review
[29] = CD68 OVERALL POSITIVE: 0-25, ≦65 years old, IRC Review
[30] = CD68 OVERALL POSITIVE: >75, Male, IRC Review
[31] = CD68 POSITIVE FOLLICULAR: 0-25, >1 year since last anti-lymphoma treatment, IRC Review
[32] = CD68 POSITIVE FOLLICULAR: 0-25, Ann Arbor Stage III, IRC Review
[33] = CD68 POSITIVE FOLLICULAR: 0-25, Asian, IRC Review
[34] = CD68 POSITIVE FOLLICULAR: 0-25, Female, IRC Review
[35] = CD68 POSITIVE FOLLICULAR: 0-25, Intermediate FLIPI Score, IRC Review
[36] = CD68 POSITIVE FOLLICULAR: 0-25, No High Tumor Burden, IRC Review
[37] = CD68 POSITIVE FOLLICULAR: 0-25, No Prior Rituximab Therapy, IRC Review
[38] = CD68 POSITIVE FOLLICULAR: 0-25, No Subgroup, IRC Review
[39] = CD68 POSITIVE FOLLICULAR: 0-25, White, IRC Review
[40] = CD68 POSITIVE FOLLICULAR: 0-25, ≦65 years old, IRC Review
[41] = CD68 POSITIVE PERIFOLLICULAR: 0-25, 2 Prior Lines of Therapy, IRC Review
[42] = CD68 POSITIVE PERIFOLLICULAR: 0-25, >1 year since last anti-lymphoma treatment, IRC Review
[43] = CD68 POSITIVE PERIFOLLICULAR: 0-25, Ann Arbor Stage IV, IRC Review
[44] = CD68 POSITIVE PERIFOLLICULAR: 0-25, Female, IRC Review
[45] = CD68 POSITIVE PERIFOLLICULAR: 0-25, Intermediate FLIPI Score, IRC Review
[46] = CD68 POSITIVE PERIFOLLICULAR: 0-25, No High Tumor Burden, IRC Review
[47] = CD68 POSITIVE PERIFOLLICULAR: 0-25, No Prior Rituximab Therapy, IRC Review
[48] = CD68 POSITIVE PERIFOLLICULAR: 0-25, No Subgroup, IRC Review

Substance: rituximab
- Evt/N, Time to Next Anti-Lymphoma Therapy [1]: 35/61
- Median, Time to Next Anti-Lymphoma Therapy [1]: 568
- Evt/N, Time to Next Anti-Lymphoma Therapy [2]: 14/16
- Median, Time to Next Anti-Lymphoma Therapy [2]: 247
- Evt/N, Time to Next Anti-Lymphoma Therapy [3]: 17/21
- Median, Time to Next Anti-Lymphoma Therapy [3]: 343
- Evt/N, Time to Next Anti-Lymphoma Therapy [4]: 34/52
- Median, Time to Next Anti-Lymphoma Therapy [4]: 533
- Evt/N, Time to Next Anti-Lymphoma Therapy [5]: 20/27
- Median, Time to Next Anti-Lymphoma Therapy [5]: 421
- Median, Time to Next Anti-Lymphoma Therapy (BCL2/A43G: MND, subgroup Ann Arbor Stage IV, IRC review): 450
- Evt/N, Time to Next Anti-Lymphoma Therapy [6]: 89/140
- Median, Time to Next Anti-Lymphoma Therapy [6]: 504
- Median, Time to Next Anti-Lymphoma Therapy (BCL2/C.-11C > T: MND, subgroup Ann Arbor Stage IV, IRC review): 450
- Evt/N, Time to Next Anti-Lymphoma Therapy [7]: 110/168
- Median, Time to Next Anti-Lymphoma Therapy [7]: 504
- Evt/N, Time to Next Anti-Lymphoma Therapy [8]: 83/129
- Median, Time to Next Anti-Lymphoma Therapy [8]: 485
- Evt/N, Time to Next Anti-Lymphoma Therapy [9]: 74/117
- Median, Time to Next Anti-Lymphoma Therapy [9]: 505
- Evt/N, Time to Next Anti-Lymphoma Therapy [10]: 81/130
- Median, Time to Next Anti-Lymphoma Therapy [10]: 505
- Evt/N, Time to Next Anti-Lymphoma Therapy [11]: 80/129
- Median, Time to Next Anti-Lymphoma Therapy [11]: 533
- Evt/N, Time to Next Anti-Lymphoma Therapy [12]: 81/128
- Median, Time to Next Anti-Lymphoma Therapy [12]: 505
- Evt/N, Time to Next Anti-Lymphoma Therapy [13]: 85/135
- Median, Time to Next Anti-Lymphoma Therapy [13]: 504
- Evt/N, Time to Next Anti-Lymphoma Therapy [14]: 93/140
- Median, Time to Next Anti-Lymphoma Therapy [14]: 501
- time to next treatment interval (Biomarker positive (PSMB1 P11A heterozygote and CD68 Low)): 14.8 mo
- Evt/N, Time to Next Anti-Lymphoma Therapy [15]: 6/8
- Median, Time to Next Anti-Lymphoma Therapy [15]: 204
- Evt/N, Time to Next Anti-Lymphoma Therapy [16]: 17/26
- Median, Time to Next Anti-Lymphoma Therapy [16]: 409
- Evt/N, Time to Next Anti-Lymphoma Therapy [17]: 12/16
- Median, Time to Next Anti-Lymphoma Therapy [17]: 276
- Evt/N, Time to Next Anti-Lymphoma Therapy [18]: 15/22
- Median, Time to Next Anti-Lymphoma Therapy [18]: 434
- Evt/N, Time to Next Anti-Lymphoma Therapy [19]: 14/22
- Median, Time to Next Anti-Lymphoma Therapy [19]: 374
- Evt/N, Time to Next Anti-Lymphoma Therapy [20]: 16/26
- Median, Time to Next Anti-Lymphoma Therapy [20]: 434
- Evt/N, Time to Next Anti-Lymphoma Therapy [21]: 7/11
- Median, Time to Next Anti-Lymphoma Therapy [21]: 485
- Evt/N, Time to Next Anti-Lymphoma Therapy [22]: 8/10
- Median, Time to Next Anti-Lymphoma Therapy [22]: 422
- Evt/N, Time to Next Anti-Lymphoma Therapy [23]: 14/18
- Median, Time to Next Anti-Lymphoma Therapy [23]: 251
- Evt/N, Time to Next Anti-Lymphoma Therapy [24]: 8/14
- Median, Time to Next Anti-Lymphoma Therapy [24]: 552
- Evt/N, Time to Next Anti-Lymphoma Therapy [25]: 12/19
- Median, Time to Next Anti-Lymphoma Therapy [25]: 533
- Evt/N, Time to Next Anti-Lymphoma Therapy [26]: 30/44
- Median, Time to Next Anti-Lymphoma Therapy [26]: 409
- Evt/N, Time to Next Anti-Lymphoma Therapy [27]: 18/25
- Median, Time to Next Anti-Lymphoma Therapy [27]: 235
- Evt/N, Time to Next Anti-Lymphoma Therapy [28]: 24/35
- Median, Time to Next Anti-Lymphoma Therapy [28]: 409
- Evt/N, Time to Next Anti-Lymphoma Therapy [29]: 24/34
- Median, Time to Next Anti-Lymphoma Therapy [29]: 374
- Evt/N, Time to Next Anti-Lymphoma Therapy (CD68 OVERALL POSITIVE: 51-75, No High Tumor Burden, IRC Review): 10/25
- Evt/N, Time to Next Anti-Lymphoma Therapy [30]: 8/9
- Median, Time to Next Anti-Lymphoma Therapy [30]: 427
- Evt/N, Time to Next Anti-Lymphoma Therapy [31]: 22/34
- Median, Time to Next Anti-Lymphoma Therapy [31]: 550
- Evt/N, Time to Next Anti-Lymphoma Therapy [32]: 19/24
- Median, Time to Next Anti-Lymphoma Therapy [32]: 332
- Evt/N, Time to Next Anti-Lymphoma Therapy [33]: 5/6
- Median, Time to Next Anti-Lymphoma Therapy [33]: 220
- Evt/N, Time to Next Anti-Lymphoma Therapy [34]: 23/37
- Median, Time to Next Anti-Lymphoma Therapy [34]: 462
- Evt/N, Time to Next Anti-Lymphoma Therapy [35]: 14/20
- Median, Time to Next Anti-Lymphoma Therapy [35]: 421
- Evt/N, Time to Next Anti-Lymphoma Therapy [36]: 14/22
- Median, Time to Next Anti-Lymphoma Therapy [36]: 573
- Evt/N, Time to Next Anti-Lymphoma Therapy [37]: 23/36
- Median, Time to Next Anti-Lymphoma Therapy [37]: 485
- Evt/N, Time to Next Anti-Lymphoma Therapy [38]: 40/60
- Median, Time to Next Anti-Lymphoma Therapy [38]: 462
- Evt/N, Time to Next Anti-Lymphoma Therapy [39]: 32/48
- Median, Time to Next Anti-Lymphoma Therapy [39]: 462
- Evt/N, Time to Next Anti-Lymphoma Therapy [40]: 33/46
- Median, Time to Next Anti-Lymphoma Therapy [40]: 332
- Evt/N, Time to Next Anti-Lymphoma Therapy [41]: 6/8
- Median, Time to Next Anti-Lymphoma Therapy [41]: 171
- Evt/N, Time to Next Anti-Lymphoma Therapy [42]: 15/24
- Median, Time to Next Anti-Lymphoma Therapy [42]: 533
- Evt/N, Time to Next Anti-Lymphoma Therapy [43]: 11/15
- Median, Time to Next Anti-Lymphoma Therapy [43]: 374
- Evt/N, Time to Next Anti-Lymphoma Therapy [44]: 19/28
- Median, Time to Next Anti-Lymphoma Therapy [44]: 374
- Evt/N, Time to Next Anti-Lymphoma Therapy [45]: 7/13
- Median, Time to Next Anti-Lymphoma Therapy [45]: 501
- Evt/N, Time to Next Anti-Lymphoma Therapy [46]: 8/13
- Median, Time to Next Anti-Lymphoma Therapy [46]: 501
- Evt/N, Time to Next Anti-Lymphoma Therapy [47]: 12/18
- Median, Time to Next Anti-Lymphoma Therapy [47]: 533
- Evt/N, Time to Next Anti-Lymphoma Therapy [48]: 26/39
- Median, Time to Next Anti-Lymphoma Therapy [48]: 374
